Structures can show the parent of a compound that is named as a salt.
What was measured:
[1] = system: patients with light and moderate diastolic hypertension; assay: Clinical trial study of Example 5 (compound preparation 5 mg lercanidipine + 20 mg losartan vs single drugs and amlodipine); format: in vivo, human; details: for Diastolic blood pressure Value changed / Systolic blood pressure Value changed: before treatment vs end of week 12; for Diastolic blood pressure Before dosing / Systolic blood pressure Before dosing: before treatment, mean ± SD; for Diastolic blood pressure After dosing / Systolic blood pressure After dosing: once daily
Method: After 14-20 days of washing stage, entering 14-30 days of introduction stage, during which single blinded placebos were taken. Blood pressures were measured in a return visit in every 7-10 days. Suitable patients were divided into treatment groups according to random principle.
(§1) 1.3 Observation indicators and method: blood, pressures were measured as per the requirements of international standard. A settled physician would follow up once a week and visited from 9:00 to 11:00. Every time heart rate and sitting blood pressure were measured 3 times and the 2 greater values were taken to calculate the mean value.
(§2) 1.4 Laboratory examinations: electrocardiogram, blood and urine routine, liver and kidney function, blood sugar, blood lipid and blood electrolyte examinations were performed before and after overall patient trial.
(§3) 1.6 Data processing and statistical method: the measurement data were calculated as mean±standard variation. Paired t-test was used to compare the quantitative indicators before and after the 4 treatment patterns. Chi-square test was used to compare the difference before and after administration.

[2] = system: patients with light and moderate diastolic hypertension; assay: Clinical trial study of Example 6 (compound preparation 7.5 mg lercanidipine + 20 mg losartan vs single drugs); format: in vivo, human; details: for Diastolic blood pressure Value changed / Systolic blood pressure Value changed: before treatment vs end of week 12; for Diastolic blood pressure Before dosing / Systolic blood pressure Before dosing: before treatment, mean ± SD
Excerpt: 1.1 Selection of cases: patients aged from 18-75 years old with light and moderate diastolic hypertension (supine diastolic blood pressure 95-115 mmHg), excluding severe hypertension (diastolic blood pressure >115 mmHg), secondary hypertension, heart disease, myocardial infarction, shock, transient ischemic stroke within the past 3 months, sinus bradycardia or sinus tachycardia, hypovolemia, liver and kidney dysfunction and diabetes. After 14-20 days of washing stage, entering 14-30 days of introduction stage, during which single blinded placebos were taken. Blood pressures were measured in a return visit in every 7-10 days. Suitable patients were divided into treatment groups according to random principle.
1.2 Trial method: there were totally 359 patients enrolled, and 305 patients entered the introduction stage and 266 entered the assessment stage.
as §1, with “blood” for “blood,”
as §2
1.5 Curative effect assessment: according to the regulations of The National Cardiovascular Epidemiology and Population Prevention report meeting summary in 1979: (1) markedly effective: diastolic blood pressure was decreased by ≧10 mmHg, and was decreased to normal (<90 mmHg) or decreased by more than 20 mmHg; (2) effective: diastolic blood pressure was decreased by 10-19 mmHg or was decreased by <10 mmHg, but reached normal; (3) failure: not reached above criteria.
as §3

Row | cases occurring gastrointestinal tract symptoms ([1]; 12 weeks of treatment) | cases occurring gastrointestinal tract symptoms ([2]; 12 weeks of treatment) | Compound | Diastolic blood pressure Value changed [1] [mmHg] | Systolic blood pressure Value changed [1] [mmHg] | Diastolic blood pressure Before dosing [1] [mmHg] | Systolic blood pressure Before dosing [1] [mmHg] | Diastolic blood pressure After dosing ([1]; end of week 12 of treatment) [mmHg] | Systolic blood pressure After dosing ([1]; end of week 12 of treatment) [mmHg] | Diastolic blood pressure Value changed [2] [mmHg] | Systolic blood pressure Value changed [2] [mmHg] | Diastolic blood pressure Before dosing [2] [mmHg] | Systolic blood pressure Before dosing [2] [mmHg] | Diastolic blood pressure After dosing ([2]; end of week 12 of treatment) [mmHg] | Systolic blood pressure After dosing ([2]; end of week 12 of treatment) [mmHg] | other results
1 | two | one | COC(=O)C1=C(C)NC(C)=C(C(=O)OC(C)(C)CN(C)CCC(c2ccccc2)c2ccccc2)C1c1cccc([N+](=O)[O-])c1 (stereo not shown) [lercanidipine hydrochloride] | 13 ± 8 | 19 ± 3 | 104 ± 9 | 152 ± 9 | 88 ± 7 | 139 ± 8 | 16 ± 6 | 19 ± 7 | 106 ± 8 | 156 ± 8 | 89 ± 7 | 136 ± 7 | cases of dizziness ([1]; 12 weeks of treatment): one; Effective rate (total effective rate for decreasing blood pressure) ([1]; end of week 12 of treatment, criteria of b72, hydrochloride): 70.8%; Effective rate (total effective rate for decreasing blood pressure) ([1]; end of week 12 of treatment; criteria of b72; listed as 2), hydrochloride): 70.8%; cases of dizziness ([2]; 12 weeks of treatment): one; Effective rate (total effective rate for decreasing blood pressure) ([2]; end of week 12 of treatment, criteria of b91, hydrochloride): 71.6%; Effective rate (total effective rate for decreasing blood pressure) ([2]; end of week 12 of treatment; criteria of b91; listed as 2), hydrochloride): 71.6%
2 | four | two | CCCCc1nc(Cl)c(CO)n1Cc1ccc(-c2ccccc2-c2nn[nH]n2)cc1 [losartan] | 11 ± 5 | 15 ± 9 | 100 ± 5 | 152 ± 9 | 81 ± 9 | 138 ± 6 | 14 ± 5 | 17 ± 5 | 102 ± 6 | 152 ± 7 | 83 ± 8 | 139 ± 5 | cases of dry mouth ([1]; 12 weeks of treatment): one; Effective rate (total effective rate for decreasing blood pressure) ([1]; end of week 12 of treatment; criteria of b72; listed as 3)): 75.1%; Effective rate (total effective rate for decreasing blood pressure) ([1]; end of week 12 of treatment, criteria of b72, listed as lorsartan): 75.1%; cases of dry mouth ([2]; 12 weeks of treatment): one; Effective rate (total effective rate for decreasing blood pressure) ([2]; end of week 12 of treatment; criteria of b91; listed as 3)): 77.3%; Effective rate (total effective rate for decreasing blood pressure) ([2]; end of week 12 of treatment, criteria of b91, listed as lorsartan): 77.3%

From patent US20150079183A1, “Lercanidipine Hydrochloride and Losartan Potassium Compound Preparation and Preparation Method Thereof” (Zhaoke Pharmaceutical (Hefei) Company Limited, priority 2012, published 2015)
